Values joined by “and” are separate entries in the source; they are usually repeats but may differ in a detail not shown here. Equal entries are not always repeated. Inconclusive results and toxic doses are left out.
Test system: BDF1 mice, P388 leukemia ip, median survival T/C
Experiment: NCI In Vivo Anticancer Drug Screen. Data for tumor model P388 Leukemia (intraperitoneal) in B6D2F1 (BDF1) mice
Settings: endpoint: median survival time, higher = longer survival
Outline: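 Antitumour effect was judged in vivo: survival in drug-treated mice, normalised to that of vehicle-dosed controls, gives the reported T/C.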

[1] = dose: 100.0 mg/kg/injection, schedule: Q01DX001 (ip), vehicle: saline with Tween-80
[2] = dose: 100.0 mg/kg/injection, schedule: Q01DX009 (ip), vehicle: saline

Nc1ncn(C2OC(CO)C(O)C2O)c(=O)n1 (centres undefined)
T/C (dose: 0.16 mg/kg/injection, schedule: Q01DX009 (ip), vehicle: saline): 91 % of control | T/C (dose: 0.25 mg/kg/injection, schedule: Q01DX009 (ip), vehicle: saline): 116 % of control | T/C (dose: 0.38 mg/kg/injection, schedule: Q01DX009 (ip), vehicle: saline): 150 % of control | T/C (dose: 0.75 mg/kg/injection, schedule: Q01DX009 (ip), vehicle: saline): 181 % of control | T/C (dose: 0.9 mg/kg/injection, schedule: Q01DX009 (ip), vehicle: saline): 210 % of control | T/C (dose: 1.0 mg/kg/injection, schedule: Q01DX005 (ip), vehicle: saline): 166 % of control | T/C (dose: 1.5 mg/kg/injection, schedule: Q01DX009 (ip), vehicle: saline): 195 % of control and 202 % of control | T/C (dose: 1.9 mg/kg/injection, schedule: Q01DX009 (ip), vehicle: saline): 235 % of control | T/C (dose: 2.0 mg/kg/injection, schedule: Q01DX005 (ip), vehicle: saline): 201 % of control | T/C (dose: 2.2 mg/kg/injection, schedule: Q01DX009 (ip), vehicle: saline): 235 % of control and 236 % of control and 216 % of control | T/C (dose: 3.0 mg/kg/injection, schedule: Q01DX009 (ip), vehicle: saline): 100 % of control | T/C (dose: 3.3 mg/kg/injection, schedule: Q01DX009 (ip), vehicle: saline): 260 % of control and 275 % of control and 280 % of control | T/C (dose: 4.0 mg/kg/injection, schedule: Q01DX005 (ip), vehicle: saline): 204 % of control | T/C (dose: 4.25 mg/kg/injection, schedule: Q04DX003 (ip), vehicle: saline): 172 % of control | T/C (dose: 5.0 mg/kg/injection, schedule: Q01DX009 (ip), vehicle: saline): 254 % of control and 336 % of control and 365 % of control | T/C (dose: 5.0 mg/kg/injection, schedule: Q04DX004 (ip), vehicle: saline): 207 % of control | T/C (dose: 6.0 mg/kg/injection, schedule: Q01DX009 (ip), vehicle: saline): 104 % of control | T/C (dose: 6.48 mg/kg/injection, schedule: Q04DX003 (ip), vehicle: saline): 220 % of control | T/C (dose: 7.0 mg/kg/injection, schedule: Q04DX004 (ip), vehicle: saline): 216 % of control | T/C (dose: 7.5 mg/kg/injection, schedule: Q01DX009 (ip), vehicle: saline): 100 % of control | T/C (dose: 8.5 mg/kg/injection, schedule: Q01DX009 (ip), vehicle: saline): 90 % of control | T/C (dose: 10.0 mg/kg/injection, schedule: Q04DX004 (ip), vehicle: saline): 112 % of control and 219 % of control | T/C (dose: 10.8 mg/kg/injection, schedule: Q04DX003 (ip), vehicle: saline): 177 % of control | T/C (dose: 11.0 mg/kg/injection, schedule: Q04DX004 (ip), vehicle: saline): 248 % of control | T/C (dose: 12.0 mg/kg/injection, schedule: Q04DX003 (ip), vehicle: saline): 225 % of control | T/C (dose: 15.0 mg/kg/injection, schedule: Q04DX004 (ip), vehicle: saline): 226 % of control and 106 % of control | T/C (dose: 16.0 mg/kg/injection, schedule: Q04DX004 (ip), vehicle: saline): 272 % of control | T/C (dose: 19.0 mg/kg/injection, schedule: Q04DX003 (ip), vehicle: saline): 233 % of control | T/C (dose: 20.0 mg/kg/injection, schedule: Q04DX004 (ip), vehicle: saline): 165 % of control | T/C (dose: 44.0 mg/kg/injection, schedule: Q01DX001 (ip), vehicle: saline): 176 % of control | T/C (dose: 49.0 mg/kg/injection, schedule: Q01DX001 (ip), vehicle: saline): 170 % of control | T/C (dose: 73.0 mg/kg/injection, schedule: Q01DX001 (ip), vehicle: saline): 176 % of control and 182 % of control | T/C (dose: 110.0 mg/kg/injection, schedule: Q01DX001 (ip), vehicle: saline): 157 % of control and 190 % of control | T/C (dose: 150.0 mg/kg/injection, schedule: Q01DX001 (ip), vehicle: saline): 120 % of control

C=CCOc1ccc([N+](=O)[O-])cc1[N+](=O)[O-]
T/C [1]: 100 % of control | T/C (dose: 200.0 mg/kg/injection, schedule: Q01DX001 (ip), vehicle: saline with Tween-80): 105 % of control | T/C (dose: 400.0 mg/kg/injection, schedule: Q01DX001 (ip), vehicle: saline with Tween-80): 100 % of control

CCN1c2c(nc(N)[nH]c2=O)NCC1CNc1ccc(C(=O)NC(CCC(=O)O)C(=O)O)cc1 (centres undefined)
T/C [2]: 101 % of control | T/C (dose: 200.0 mg/kg/injection, schedule: Q01DX009 (ip), vehicle: saline): 105 % of control | T/C (dose: 400.0 mg/kg/injection, schedule: Q01DX009 (ip), vehicle: saline): 105 % of control

CC(=O)C1CCC=C2C1CC1CC2C1(C)C (centres undefined)
T/C (dose: 100.0 mg/kg/injection, schedule: Q04DX003 (ip), vehicle: Klucel (hydroxypropylcellulose) (HPC)): 100 % of control | T/C (dose: 200.0 mg/kg/injection, schedule: Q04DX003 (ip), vehicle: Klucel (hydroxypropylcellulose) (HPC)): 109 % of control | T/C (dose: 400.0 mg/kg/injection, schedule: Q04DX003 (ip), vehicle: Klucel (hydroxypropylcellulose) (HPC)): 104 % of control

N=C(N)Sc1cc(O)ccc1O
T/C (dose: 50.0 mg/kg/injection, schedule: Q01DX009 (ip), vehicle: saline): 109 % of control | T/C (dose: 65.0 mg/kg/injection, schedule: Q01DX009 (ip), vehicle: saline): 115 % of control | T/C [2]: 115 % of control

C(=N/Nc1ccccn1)/c1cccnc1
T/C (dose: 25.0 mg/kg/injection, schedule: Q01DX001 (ip), vehicle: saline with Tween-80): 100 % of control | T/C (dose: 50.0 mg/kg/injection, schedule: Q01DX001 (ip), vehicle: saline with Tween-80): 98 % of control | T/C [1]: 100 % of control

Source: PubChem BioAssay AID328 (DTP/NCI, 2004)
